Measured values from patent US20250313553A1, “ANNULATED 2-AMINO-3-CYANO THIOPHENES AND DERIVATIVES FOR THE TREATMENT OF CANCER” (Boehringer Ingelheim Int'l GmbH Corp., priority 2021, published 2025).
≈ marks a conversion by molar mass, not a printed value. Read-outs that look alike come from different tables or passages of the source.

What was measured:
KRAS G12D Ba/F3 cells = KRAS G12D Ba/F3 cells (Homo sapiens, UniProt P01116, G12D, cells depend on it); experiment: Ba/F3 proliferation assay, KRAS G12D; format: cell-based; conditions: 72 h, AlamarBlue, read-out: KRAS G12D Ba/F3 IC50
Sequence of KRAS G12D Ba/F3 cells (P01116 whole entry G12D, canonical isoform): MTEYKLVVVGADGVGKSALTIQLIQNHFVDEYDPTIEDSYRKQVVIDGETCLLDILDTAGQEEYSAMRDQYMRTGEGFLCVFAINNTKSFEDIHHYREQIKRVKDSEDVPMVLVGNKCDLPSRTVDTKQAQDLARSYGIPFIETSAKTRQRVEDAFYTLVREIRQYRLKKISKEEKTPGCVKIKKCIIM
Experimental: (§1) To generate KRASG12-dependent Ba/F3 models, Ba/F3 cells are transduced with retroviruses containing vectors that harbor KRASG12 isoforms. Platinum-E cells (Cell Biolabs) are used for retrovirus packaging. Retrovirus is added to Ba/F3 cells. To ensure infection, 4 μg/mL polybrene is added and cells are spinfected. […] Cells with an infection efficiency of 10% to 20% are further cultivated and puromycin selection with 1 μg/mL is initiated. As a control, parental Ba/F3 cells are used to show selection status. Selection is considered successful when parental Ba/F3 cells cultures died. To evaluate the transforming potential of KRASG12 mutations, the growth medium is no longer supplemented with IL-3. Ba/F3 cells harboring the empty vector are used as a control. Approximately ten days before conducting the experiments, puromycin is left out.
(§2) All treatments are performed in technical duplicates. […] AlamarBlue™ (ThermoFisher), a viability stain, is added and fluorescence measured in the PerkinElmer Envision HTS Multilabel Reader. The raw data are imported into and analyzed with the Boehringer Ingelheim proprietary software MegaLab (curve fitting based on the program PRISM, GraphPad Inc.).

KRAS G12C Ba/F3 cells = KRAS G12C Ba/F3 cells (Homo sapiens, UniProt P01116, G12C, cells depend on it); experiment: Ba/F3 proliferation assay, KRAS G12C; format: cell-based; conditions: 72 h, AlamarBlue, read-out: KRAS G12C Ba/F3 IC50
Sequence of KRAS G12C Ba/F3 cells (P01116 whole entry G12C): as the sequence (P01116 whole entry G12D, canonical isoform) above, with D12C counted along it
Experimental: as §1, §2

[1] = system: ERK phosphorylation in NCI-H358 (KRAS G12C); experiment: ERK phosphorylation assay (assay 1, NCI-H358); format: cell-based; conditions: Homo sapiens; NCI-H358, assay 1, 1 h incubation; read-out: IC50 H358 pERK
Experimental: Low IC50 values in this assay setting are indicative of high potency of the compounds according to the invention. […]
The cells are incubated for 1 h at room temperature and then incubated overnight in an incubator at 37° C. and 5% CO2 in a humidified atmosphere. 60 nL compound solution (10 mM DMSO stock solution) is then added using a Labcyte Echo 550 device. […] After 20 min of incubation at room temperature with shaking, 6 μL of each lysate sample is transferred to a 384-well Proxiplate and analyzed for pERK (Thr202/Tyr204) with the AlphaLISA SureFire Ultra pERK1/2 (Thr202/Tyr204) Assay Kit. 3 μL Acceptor Mix and 3 μL Donor Mix are added under subdued light and incubated for 2 h at room temperature in the dark, before the signal is measured on a PerkinElmer Envision HTS Multilabel Reader. The raw data are imported into and analyzed with the Boehringer Ingelheim proprietary software MegaLab (curve fitting based on the program PRISM, GraphPad Inc.).

[2] = Metabolic (microsomal) stability assay, HLM; format: in vitro ADME; conditions: human liver microsomes, 1 μM, predicted clearance as percent of liver blood flow
Experimental: The metabolic degradation of the test compound is assayed at 37° C. with pooled liver microsomes (mouse (MLM), rat (RLM) or human (HLM)). The final incubation volume of 48 μL per time point contains TRIS buffer (pH 7.5; 0.1 M), magnesium chloride (6.5 mM), microsomal protein (0.5 mg/mL for mouse/rat, 1 mg/mL for human specimens) and the test compound at a final concentration of 1 μM. Following a short preincubation period at 37° C., the reactions are initiated by addition of 12 μL beta-nicotinamide adenine dinucleotide phosphate, reduced form (NADPH, 10 mM) and terminated by transferring an aliquot into solvent after different time points (0, 5, 15, 30, 60 min). Additionally, the NADPH-independent degradation is monitored in incubations without NADPH, terminated at the last time point by addition of acetonitrile. The quenched incubations are pelleted by centrifugation (4,000 rpm, 15 min). An aliquot of the supernatant is assayed by LC-MS/MS to quantify the concentration of parent compound in the individual samples.
In vitro intrinsic clearance (CLint, in vitro) is calculated from the time course of the disappearance of the test drug during the microsomal incubation. Each plot is fitted to the first-order elimination rate constant as C(t)=C0*exp(−ke*t), where C(t) and C0 are the concentration of unchanged test drug at incubation time t and that at preincubation and ke is the disappearance rate constant of the unchanged drug. Subsequently, CLint, in vitro (μL min^−1·amount protein) values are converted to predicted CLint, in vivo (mL min^−1·kg^−1) from incubation parameters according to the equation CLint, in vivo=CLint, in vitro×(incubation volume (ml)/amount protein (mg))×(amount protein (mg)/g liver tissue)×(liver weight/body wt.). For better across species comparison the predicted clearance is expressed as percent of the liver blood flow [% QH](mL min^−1·kg^−1) in the individual species. In general, high stability (corresponding to low % QH) of the compounds across species is desired.

CYP3A4 = target: T1, CYP3A4 (Homo sapiens, UniProt P08684); experiment: Mechanism based inhibition of CYP3A4 assay (MBI 3A4); format: in vitro ADME; conditions: 25 uM, hydroxy-midazolam formation after 30 min preincubation relative to 0 min
T1 construct: assayed in human liver microsomes (0.02 mg/mL) with midazolam (15 μM) as a substrate; from tissue; host or cells: human liver microsomes
T1 sequence (P08684 whole entry): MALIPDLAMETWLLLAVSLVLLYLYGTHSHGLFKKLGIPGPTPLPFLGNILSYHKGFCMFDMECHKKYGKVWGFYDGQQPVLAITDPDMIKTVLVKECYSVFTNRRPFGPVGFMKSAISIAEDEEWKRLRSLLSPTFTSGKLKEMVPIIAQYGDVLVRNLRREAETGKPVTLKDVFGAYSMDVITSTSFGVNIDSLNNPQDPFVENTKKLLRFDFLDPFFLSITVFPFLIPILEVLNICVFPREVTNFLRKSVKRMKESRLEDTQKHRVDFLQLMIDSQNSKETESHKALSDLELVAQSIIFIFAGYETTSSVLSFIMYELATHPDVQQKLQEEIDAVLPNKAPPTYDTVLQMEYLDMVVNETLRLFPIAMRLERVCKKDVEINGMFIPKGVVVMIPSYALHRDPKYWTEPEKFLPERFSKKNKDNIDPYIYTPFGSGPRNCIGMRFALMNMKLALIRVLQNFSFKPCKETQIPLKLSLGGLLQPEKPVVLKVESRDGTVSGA
Experimental: The time dependent inhibition towards CYP3A4 is assayed in human liver microsomes (0.02 mg/mL) with midazolam (15 μM) as a substrate. The test compounds and water control (wells w/o test compound) are preincubated in presence of NADPH (1 mM) with human liver microsomes (0.2 mg/mL) at a concentration of 25 uM for 0 min and 30 min. After preincubation, the incubate is diluted 1:10 and the substrate midazolam is added for the main incubation (15 min). The main incubation is quenched with acetonitrile and the formation of hydroxy-midazolam is quantified via LC/MS-MS. The formation of hydroxy-midazolam from the 30 min preincubation relative to the formation from the 0 min preincubation is used as a readout. Values of less than 100% mean that the substrate midazolam is metabolized to a lower extent upon 30 min preincubation compared to 0 min preincubation. In general low effects upon 30 min preincubation are desired (corresponding to values close to 100%/not different to the values determined with water control).

[3] = Solubility measurement (DMSO solution precipitation method); format: physicochemical; conditions: aqueous buffer, kinetic from dmso stock
Experimental: The DMSO solution is diluted with an aqueous medium (McIlvaine buffer with pH=4.5 or 6.8) to a final concentration of 250 μM. After 24 h of shaking at ambient temperature a potentially formed precipitate is removed by filtration. The concentration of the test compound in the filtrate is determined by LC-UV methods by calibrating the signal to the signal of a reference solution with complete dissolution of the test compound in acetonitrile/water (1:1) with known concentration.

[4] = McIlvaine buffer pH 4.5, 24 h, read-out: solubility pH 4.5
[5] = McIlvaine buffer pH 6.8, 24 h, read-out: solubility pH 6.8

| Structure (SMILES) | GI50 (KRAS G12D Ba/F3 cells) [nM] | GI50 (KRAS G12C Ba/F3 cells) [nM] | IC50 [1] [nM] | HLM QH [2] [%] | MBI 3A4 (CYP3A4) [%] | solubility at 24 h [3, 4] [µg/mL] | solubility at 24 h [3, 5] [µg/mL] |
| --- | --- | --- | --- | --- | --- | --- | --- |
| C[C@H]1CN(C)CCN1c1cccc(-c2noc([C@@]3(C)CCCc4sc(N)c(C#N)c43)n2)n1 [Example V-1] | 961 | 1270 | 252 | 93 | 65 | > 110 | 76 (≈ 169 µM) |
| C[C@H]1CNCCN1c1nccc(-c2noc([C@@]3(C)CCCc4sc(N)c(C#N)c43)n2)n1 [Example V-4] | 823 | 831 | 130 | 83 | 75 | > 97 | > 91 |
| C[C@H]1CNCCCN1c1nccc(-c2noc([C@@]3(C)CCCc4sc(N)c(C#N)c43)n2)n1 [Example V-6] | 801 | 811 | 75 | 77 |  | 88 (≈ 195 µM) | 85 (≈ 189 µM) |
| C[C@H]1CN(C)CCN1c1nccc(-c2noc([C@@]3(C)CCCc4sc(N)c(C#N)c43)n2)n1 [Example V-7] | 1090 | 1240 | 137 | 95 | 57 |  |  |
| C[C@H](Oc1ccnc(-c2noc([C@@]3(C)CCCc4sc(N)c(C#N)c43)n2)n1)[C@@H]1CCCN1C [Example V-11] |  |  | 7 | 81 |  | > 116 | > 116 |
| C[C@H]1CN(C)CCN1c1nccc(-c2cc([C@@]3(C)CCCc4sc(N)c(C#N)c43)on2)n1 [Example V-27] | 525 | 1430 |  | >88 | 71 | > 93 | 18 (≈ 40 µM) |

Now from value to compound:

| GI50 (KRAS G12D Ba/F3 cells) [nM] | GI50 (KRAS G12C Ba/F3 cells) [nM] | IC50 [1] [nM] | HLM QH [2] [%] | MBI 3A4 (CYP3A4) [%] | solubility at 24 h [3, 4] [µg/mL] | solubility at 24 h [3, 5] [µg/mL] | Structure (SMILES) |
| --- | --- | --- | --- | --- | --- | --- | --- |
| 256 | 371 | 23 | >95 |  | > 130 | 100 (≈ 191 µM) | COCCCN1CCCN(c2nccc(-c3noc([C@@]4(C)CCCc5sc(N)c(C#N)c54)n3)n2)[C@@H](C)C1 [Example V-2] |
| 293 | 493 | 38 | 94 | 55 | > 100 | 92 (≈ 198 µM) | C[C@H]1CN(C)CCCN1c1nccc(-c2noc([C@@]3(C)CCCc4sc(N)c(C#N)c43)n2)n1 [Example V-5] |
| 390 | 481 | 55 | >88 |  | > 96 | > 95 | C[C@H](Oc1cccc(-c2noc([C@@]3(C)CCCc4sc(N)c(C#N)c43)n2)n1)[C@@H]1CCCN1C [Example V-8] |
| 51 | 64 | 12 | >88 | 49 | > 110 | > 110 | CC(C)N1CCCN(c2nccc(-c3noc([C@@]4(C)CCCc5sc(N)c(C#N)c54)n3)n2)[C@@H](C)C1 [Example V-9] |
| 214 | 291 | 12 | 87 | 65 | > 110 | > 110 | C[C@H](Oc1nccc(-c2noc([C@@]3(C)CCCc4sc(N)c(C#N)c43)n2)n1)[C@@H]1CCCN1C [Example V-10] |
